Results published in patent publication US11110091B2, “Modulators of toll-like receptors” (Gilead Sciences, Inc., priority 2008, dated 2021).

Tested on: human Peripheral Blood Mononuclear Cell (PMBC)
Test: PBMC assay: cytokine (IFN-α) stimulation at 24 hours
Assay type: cell-based
Conditions: lowest concentration stimulating IFN-α production at least 3-fold over background, Luminex, read-out: IFN MEC
Description: Assays were conducted to determine cytokine stimulation at 24 hours from human Peripheral Blood Mononuclear Cell (PMBC) using the compounds of the present invention. The assays were run in duplicate, with 8-point, half-log dilution curves. The compounds of the present invention were diluted from 10 mM DMSO solution. Cell supernatants are assayed directly for IFNα and 1:10 dilution for TNFα. The assays were performed in a similar fashion as described in Bioorg. […] Specifically, cryo-preserved PBMCs were thawed and seeded 96 well plates with 750,000 cells/well in 190 μL/well cell media. The PBMCs were then incubated for 1 hour at 37° C. at 5% CO2. Then, the compounds of the present invention were added in 10 μL cell media at 8 point, half-log dilution titration. The plates were incubated at 37° C. and 5% CO2 for 24 hours and then spinned at 1200 rpm for 10 min, which was followed by collecting supernatant and storing the same at −80° C. Cytokine secretion was assayed with Luminex and Upstate multi-plex kits, using a Luminex analysis instrument. The IFN-α MEC value for a compound was the lowest concentration at which the compound stimulated IFN-α production at least 3-fold over the background as determined using the assay method above.

Row | SMILES | minimal effective concentration [µM]
1 | CCCCOc1nc(N)c2c(n1)N(CCC1CCN(CC3CC3)CC1)CC(=O)N2 [Example 113] | ≤ 0.03
2 | CCCCOc1nc(N)c2c(n1)N(CCCN(Cc1ccccc1)C(=O)CN1CCN(C)CC1)CC(=O)N2 [Example 110] | ≤ 0.03
3 | Nc1nc(OCC2CCOCC2)nc2c1NC(=O)CN2Cc1cccc(CN2CCCC2)c1 [Example 30] | ≤ 0.03
4 | CCCCOc1nc(N)c2c(n1)N(Cc1ccc3c(c1)CCNC3)CC(=O)N2 [Example 103] | ≤ 0.03
5 | CCCCOc1nc(N)c2[nH]c(=O)c(=O)n(Cc3ccc(-c4ccc(CN5CCCC5)cc4)cc3)c2n1 [Example 101] | > 0.03
6 | CCCCNc1nc(N)c2c(n1)N(Cc1ccnc(N3CCOCC3)c1)CC(=O)N2 [Example 78] | > 0.03
7 | Nc1nc(OCC2CCCC2)nc2c1NC(=O)CN2Cc1cccc(CN2CCCC2)c1 [Example 8, 4-amino-2-{(cyclopentyl)methoxy}-8-[3′-(pyrrolidin-1″-ylmethyl)-benzyl]-5,6,7,8-tetrahydropteridin-6-one] | > 0.03
8 | CCC[C@@H](C)Oc1nc(N)c2c(n1)N(Cc1ccc(CN3CCCC3)cc1)CC(=O)N2 [Example 60] | > 0.03
9 | COCCOc1nc(N)c2c(n1)N(Cc1ccc(-c3cccc(CN4CCCC4)c3)cc1)CC(=O)N2 [Example 94] | ≤ 0.03
10 | CC(C)(C)COc1nc(N)c2c(n1)N(Cc1cccc(CN3CCCC3)c1)CC(=O)N2 [Example 14] | > 0.03
11 | CCCCOc1nc(N)c2c(n1)N(Cc1cccc(CN3CCC(C(=O)O)CC3)c1)CC(=O)N2 [Example 75] | > 0.03
12 | Nc1nc(OC2CCCC2)nc2c1NC(=O)CN2Cc1cccc(CN2CCCC2)c1 [Example 21] | ≤ 0.03
13 | CCCCOc1nc(N)c2c(n1)N(Cc1ccc(C(F)(F)F)nc1)CC(=O)N2 [Example 117] | > 0.03
14 | COC[C@H](C)Oc1nc(N)c2c(n1)N(Cc1cccc(CN3CCCC3)c1)CC(=O)N2 [Example 87] | ≤ 0.03
15 | CCCCOc1nc(N)c2c(n1)N(Cc1ccc(C)nc1)CC(=O)N2 [Example 111] | > 0.03
16 | CCC[C@@H](C)Oc1nc(N)c2c(n1)N(Cc1cccc(CN3CCCC3)c1)CC(=O)N2 [Example 58] | > 0.03
17 | Nc1nc(NCc2ccco2)nc2c1NC(=O)CN2Cc1cccc(CN2CCCC2)c1 [Example 38] | ≤ 0.03
18 | Cc1ccc(CN2CC(=O)Nc3c(N)nc(OCC4CCCO4)nc32)cn1 (stereo not drawn) [Example 114] | > 0.03
19 | CCCCOc1nc(N)c2c(n1)N(Cc1ccc(CN3CCCC3)cc1)CC(=O)N2 [Example 4, 4-amino-2-n-butoxy-8-[4′-(pyrrolidin-1″-ylmethyl)-benzyl]-5,6,7,8-tetrahydropteridin-6-one] | ≤ 0.03
20 | Nc1nc(NCC2CCCO2)nc2c1NC(=O)CN2Cc1cccc(CN2CCCC2)c1 (stereo not drawn) [Example 77] | > 0.03
21 | Nc1nc(NC2CCCCC2)nc2c1NC(=O)CN2Cc1cccc(CN2CCCC2)c1 [Example 36] | > 0.03
22 | CC(C)(C)CNc1nc(N)c2c(n1)N(Cc1cccc(CN3CCCC3)c1)CC(=O)N2 [Example 34] | > 0.03

Row | SMILES | minimal effective concentration [µM]
23 | CCCCOc1nc(N)c2c(n1)N(CCC1CCN(Cc3ccccc3)CC1)CC(=O)N2 [Example 108] | > 0.03
24 | CCCCOc1nc(N)c2c(n1)N(Cc1ccc3c(c1)CN(CC)CC3)CC(=O)N2 [Example 52] | ≤ 0.03
25 | CCC(CC)COc1nc(N)c2c(n1)N(Cc1cccc(CN3CCCC3)c1)CC(=O)N2 [Example 31] | ≤ 0.03
26 | Nc1nc(OCC2CCOC2)nc2c1NC(=O)CN2Cc1cccc(CN2CCCC2)c1 (stereo not drawn) [Example 17] | > 0.03
27 | Nc1nc(OCCOc2ccccc2)nc2c1NC(=O)CN2Cc1cccc(CN2CCCC2)c1 [Example 23] | > 0.03
28 | CCCCOc1nc(N)c2[nH]c(=O)c(=O)n(Cc3ccc(-c4cccc(CN5CCCC5)c4)cc3)c2n1 [Example 97] | ≤ 0.03
29 | Nc1nc(OCCCC(F)(F)F)nc2c1NC(=O)CN2Cc1cccc(CN2CCCC2)c1 [Example 56] | ≤ 0.03
30 | CCCCOc1nc(N)c2c(n1)N(Cc1ccc3c(c1)CN(CC1CCC1)CC3)CC(=O)N2 [Example 72] | ≤ 0.03
31 | CCC(CC)Oc1nc(N)c2c(n1)N(Cc1cccc(CN3CCCC3)c1)CC(=O)N2 [Example 25] | ≤ 0.03
32 | CCCCSc1nc(N)c2c(n1)N(Cc1cccc(CN3CCCC3)c1)CC(=O)N2 [Example 26] | > 0.03
33 | Nc1nc(N2CCCC2)nc2c1NC(=O)CN2Cc1cccc(CN2CCCC2)c1 [Example 43] | ≤ 0.03
34 | Nc1nc(OCCC2CC2)nc2c1NC(=O)CN2Cc1cccc(CN2CCCC2)c1 [Example 9, 4-amino-2-{2′″-(cyclopropyl)ethoxy}-8-[3′-(pyrrolidin-1″-ylmethyl)-benzyl]-5,6,7,8-tetrahydropteridin-6-one] | ≤ 0.03
35 | CCCCOc1nc(N)c2[nH]c(=O)c(=O)n(Cc3cccc(CN4CCCC4)c3)c2n1 [Example 83] | ≤ 0.03
36 | Nc1nc(OCC2CCCO2)nc2c1NC(=O)CN2Cc1ccnc(N2CCOCC2)c1 (stereo not drawn) [Example 67] | > 0.03
37 | CCCCCc1nc(N)c2c(n1)N(Cc1cccc(CN3CCCC3)c1)CC(=O)N2 [Example 53] | > 0.03
38 | Nc1nc(OCc2ccccc2)nc2c1NC(=O)CN2Cc1cccc(CN2CCCC2)c1 [Example 15] | > 0.03
39 | CCCCOc1nc(N)c2c(n1)N(Cc1cccc(CN3CCC(C(=O)OC)CC3)c1)CC(=O)N2 [Example 54] | > 0.03
40 | Nc1nc(N2CCC2)nc2c1NC(=O)CN2Cc1cccc(CN2CCCC2)c1 [Example 42] | > 0.03
41 | COC[C@@H](C)Oc1nc(N)c2c(n1)N(Cc1cccc(CN3CCCC3)c1)CC(=O)N2 [Example 88] | ≤ 0.03
42 | CC(C)CCOc1nc(N)c2c(n1)N(Cc1cccc(CN3CCCC3)c1)CC(=O)N2 [Example 11] | > 0.03
43 | CCCCNc1nc(N)c2c(n1)N(Cc1cccc(CN3CCCC3)c1)CCC(=O)N2 [Example 76] | > 0.03
44 | CCCCOc1nc(N)c2c(n1)N(Cc1ccc(-c3ccc(CN4CCCC4)cc3)cc1)CC(=O)N2 [Example 100] | ≤ 0.03

Row | SMILES | minimal effective concentration [µM]
45 | CCCCOc1nc(N)c2c(n1)N(Cc1ccc3c(c1)CNCC3)CC(=O)N2 [Example 51] | ≤ 0.03
46 | Cc1ccc(CN2CC(=O)Nc3c(N)nc(OCC4CCOC4)nc32)cn1 (stereo not drawn) [Example 115] | > 0.03
47 | Nc1nc(O[C@@H]2C[C@@H]3C[C@@H]3C2)nc2c1NC(=O)CN2Cc1cccc(CN2CCCC2)c1 [Example 68] | ≤ 0.03
48 | Nc1nc(OCC2CCCCC2)nc2c1NC(=O)CN2Cc1cccc(CN2CCCC2)c1 [Example 13] | > 0.03
49 | Nc1nc(OCCCCO)nc2c1NC(=O)CN2Cc1cccc(CN2CCCC2)c1 [Example 27] | > 0.03
50 | CCCCNc1nc(N)c2[nH]c(=O)c(=O)n(Cc3cccc(CN4CCCC4)c3)c2n1 [Example 90] | > 0.03
51 | CCCN(C)C(=O)c1nc(N)c2[nH]c(=O)c(=O)n(Cc3ccc(CN4CCCC4)cc3)c2n1 [Example 93] | ≤ 0.03
52 | CCC[C@H](C)Oc1nc(N)c2c(n1)N(Cc1ccc(CN3CCCC3)cc1)CC(=O)N2 [Example 61] | ≤ 0.03
53 | COCCOc1nc(N)c2[nH]c(=O)c(=O)n(Cc3ccc(-c4ccc(CN5CCCC5)cc4)cc3)c2n1 [Example 99] | ≤ 0.03
54 | CCC[C@H](C)Oc1nc(N)c2c(n1)N(Cc1ccc(C)nc1)CC(=O)N2 [Example 116] | > 0.03
55 | CCCCOc1nc(N)c2c(n1)N(Cc1ccccc1CN1CCCC1)CC(=O)N2 [Example 57] | > 0.03
56 | CCCN(C)C(=O)c1nc(N)c2c(n1)N(Cc1ccc(CN3CCCC3)cc1)CC(=O)N2 [Example 85] | > 0.03
57 | CC(C)(O)CCOc1nc(N)c2c(n1)N(Cc1cccc(CN3CCCC3)c1)CC(=O)N2 [Example 28] | > 0.03
58 | CCCCOc1nc(N)c2c(n1)N(Cc1ccc3c(c1)CN(C(C)C)CC3)CC(=O)N2 [Example 71] | ≤ 0.03
59 | CCCCNc1nc(N)c2c(n1)N(Cc1cccc(CN3CCCC3)c1)CC(=O)N2 [Example 32] | > 0.03
60 | CCCCOc1nc(N)c2[nH]c(=O)c(=O)n(Cc3ccccc3CN3CCCC3)c2n1 [Example 89] | ≤ 0.03
61 | CCCCOc1nc(N)c2c(n1)N(Cc1cccc(CN3CCCC3)c1)CC(=O)N2 [Example 49, 4-amino-2-n-butoxy-8-[3′-(pyrrolidin-1″-ylmethyl)-benzyl]-5,6,7,8-tetrahydropteridin-6-one] | ≤ 0.03
62 | Nc1nc(O)nc2c1NC(=O)CN2Cc1cccc(CN2CCCC2)c1 [Example 63] | > 0.03
63 | CCCCOc1nc(N)c2c(n1)N(Cc1cccc(CN3CCCC3)c1)C(O)C(=O)N2 (stereo not drawn) [Example 82] | ≤ 0.03
64 | COC[C@H](C)Nc1nc(N)c2c(n1)N(Cc1cccc(CN3CCCC3)c1)CC(=O)N2 [Example 37] | ≤ 0.03
65 | Nc1nc(OCCn2ccnc2)nc2c1NC(=O)CN2Cc1cccc(CN2CCCC2)c1 [Example 19] | > 0.03
66 | COCCOc1nc(N)c2[nH]c(=O)c(=O)n(Cc3cccc(CN4CCCC4)c3)c2n1 [Example 91] | > 0.03
